We go through 28 molecules from patent publication US20200347033A1, “MODULATORS OF THE INTEGRATED STRESS PATHWAY” (Calico Life Sciences LLC, priority 2017, published 2020).

pEC50: −log10 of the molar value.

The subject of one test is HEK293T cells carrying the ATF4 luciferase reporter. Description: ATF4-Luc assay (in vitro model of vanishing white matter disease). It is filed as cell-based, human. The settings on record: HEK293T cells with ATF4 5'-UTR firefly luciferase reporter; 1 μg/mL tunicamycin; 7 hours; One Glo luminescence. The procedure:
In order to test exemplary compounds of the invention in a cellular context, a stable VWMD cell line was first constructed. The ATF4 reporter was prepared by fusing the human full-length ATF4 5′-UTR (NCBI Accession No. BC022088.2) in front of the firefly luciferase (FLuc) coding sequence lacking the initiator methionine as described in Sidrauski et al (eLife 2013). The construct was used to produce recombinant retroviruses using standard methods and the resulting viral supernatant was used to transduce HEK293T cells, which were then subsequently selected with puromycin to generate a stable cell line.
HEK293T cells carrying the ATF4 luciferase reporter were plated on polylysine coated 384-well plates (Greiner Bio-one) at 30,000 cells per well. Cells were treated the next day with 1 μg/mL tunicamycin and 200 nM of a compound of Formula (I) for 7 hours. Luminescence was measured using One Glo (Promega) as specified by the manufacturer. Cells were maintained in DMEM with L-glutamine supplemented with 10% heat-inactivated FBS (Gibco) and Antibiotic-Antimycotic solution (Gibco).
Table 2 below summarizes the EC50 data obtained using the ATF4-Luc assay for exemplary compounds of the invention.
(Reporter assays use an easily measured gene product as a stand-in for the process of interest.)
In general, pEC50 refers to the negative decadic logarithm of the EC50, by convention in mol/L. Regarding “2-(4-chloro-3-fluorophenoxy)-N-[3-(5-chloro-1-hydroxy-3-oxo-1,3-dihydro-2H-isoindol-2-yl)bicyclo[1.1.1]pentan-1-yl]acetamide and 2-(4-chloro-3-fluorophenoxy)-N-[3-(5-chloro-3-hydroxy-1-oxo-,3-dihydro-2H-isoindol-2-yl)bicyclo[1.1.1]pentan-1-yl]acetamide [Compound 153]”, the negative logarithm of the EC50 (pEC50) was less than 5.70.

Still in this test, the particulars now being: Homo sapiens, HEK-293T; HEK293T cells with ATF4 5'-UTR firefly luciferase reporter; 1 μg/mL tunicamycin; 7 hours; One Glo luminescence.
Take `O=C(COc1ccc(Cl)c(F)c1)N[C@H]1CC[C@H](N2CCN(c3ccc(Cl)cc3)C2=O)CC1` [Compound 144, 2-(4-chloro-3-fluorophenoxy)-N-{(1r,4r)-4-[3-(4-chlorophenyl)-2-oxoimidazolidin-1-yl]cyclohexyl}acetamide]: the pEC50 was greater than 7.30.

Take `O=C(CCOc1ccc(Cl)c(F)c1)N[C@H]1CC[C@H](N2CCN(c3cnc(C(F)F)cn3)C2=O)CC1` [Compound 119, 3-(4-chloro-3-fluorophenoxy)-N-[(1r,4r)-4-{3-[5-(difluoromethyl)pyrazin-2-yl]-2-oxoimidazolidin-1-yl}cyclohexyl]propanamide]: the pEC50 is 6.00 to 6.60.

As for `O=C(COc1ccc(Cl)c(F)c1)N[C@H]1CC[C@H](N2CCN(c3ccc(C(F)F)nc3)C2=O)CC1` [Compound 142, 2-(4-chloro-3-fluorophenoxy)-N-[(1r,4r)-4-{3-[6-(difluoromethyl)pyridin-3-yl]-2-oxoimidazolidin-1-yl}cyclohexyl]acetamide], the pEC50 is greater than 7.30.

In the case of `O=C(COc1ccc(Cl)c(F)c1)N[C@H]1CC[C@H](N2CCN(c3cnc(C(F)F)cn3)C2=O)CC1` [Compound 121, 2-(4-chloro-3-fluorophenoxy)-N-[(1r,4r)-4-{3-[5-(difluoromethyl)pyrazin-2-yl]-2-oxoimidazolidin-1-yl}cyclohexyl]acetamide], the negative logarithm of the EC50 (pEC50) was greater than 7.30.

For the molecule `O=C(COc1ccc(Cl)c(F)c1)NC12CC(N3Cc4cc5ccccc5cc4C3=O)(C1)C2` [Compound 168, 2-(4-chloro-3-fluorophenoxy)-N-[3-(1-oxo-1,3-dihydro-2H-benzo[f]isoindol-2-yl)bicyclo[1.1.1]pentan-1-yl]acetamide], the pEC50 was 6.00 to 6.60.

Regarding `O=C(COc1ccc(C(F)(F)F)nc1)N[C@H]1CC[C@H](N2CCN(c3ccc(C(F)F)cn3)C2=O)CC1` [Compound 125, N-[(1r,4r)-4-{3-[5-(difluoromethyl)pyridin-2-yl]-2-oxoimidazolidin-1-yl}cyclohexyl]-2-{[6-(trifluoromethyl)pyridin-3-yl]oxy}acetamide], the negative-log EC50 (pEC50) is 6.60 to 7.30.

As to `O=C(COc1ccc(Cl)c(F)c1)NC12CC(N3CC(c4ccc(Cl)c(F)c4)CC3=O)(C1)C2` (stereo not shown) [Compound 159, 2-(4-chloro-3-fluorophenoxy)-N-{3-[4-(4-chloro-3-fluorophenyl)-2-oxopyrrolidin-1-yl]bicyclo[1.1.1]pentan-1-yl}acetamide], the pEC50 was greater than 7.30.

As for `O=C(COc1ccc(Cl)c(F)c1)NC12CCC(N3CC[C@H](c4ccc(Cl)cc4)C3=O)(CC1)C[C@@H]2O` (single isomer, unassigned) [Compound 155], the pEC50 was greater than 7.30.

`O=C(COc1ccc(Cl)c(F)c1)N[C@H]1CC[C@H](N2CCN(c3ccc(OC(F)(F)F)nc3)C2=O)CC1` [Compound 136, 2-(4-chloro-3-fluorophenoxy)-N-[(1r,4r)-4-{2-oxo-3-[6-(trifluoromethoxy)pyridin-3-yl]imidazolidin-1-yl}cyclohexyl]acetamide]: the negative-log EC50 (pEC50) is less than 5.70.

Take `O=C(NC12CC(N3CC(c4ccc(Cl)c(F)c4)OC3=O)(C1)C2)c1cc(C(F)F)no1` (stereo not shown) [Compound 167, N-{3-[5-(4-chloro-3-fluorophenyl)-2-oxo-1,3-oxazolidin-3-yl]bicyclo[1.1.1]pentan-1-yl}-3-(difluoromethyl)-1,2-oxazole-5-carboxamide]: the pEC50 is less than 5.70.

For `O=C(COc1ccc(Cl)c(F)c1)N[C@H]1CC[C@H](N2CCN(c3ccccn3)C2=O)CC1` [Compound 130, 2-(4-chloro-3-fluorophenoxy)-N-{(1r,4r)-4-[2-oxo-3-(pyridin-2-yl)imidazolidin-1-yl]cyclohexyl}acetamide], the pEC50 is greater than 7.30.

As to `O=C(COc1ccc(F)c(F)c1)N[C@H]1CC[C@H](N2CCN(c3ccc(C(F)F)cn3)C2=O)CC1` [Compound 126, N-[(1r,4r)-4-{3-[5-(difluoromethyl)pyridin-2-yl]-2-oxoimidazolidin-1-yl}cyclohexyl]-2-(3,4-difluorophenoxy)acetamide], the pEC50 is greater than 7.30.

With `Cn1nc(C(F)(F)F)cc1OC1CCN(C23CC(NC(=O)COc4ccc(Cl)c(F)c4)(C2)C3)C1=O` (stereo not shown) [Compound 107, 2-(4-chloro-3-fluorophenoxy)-N-[3-(3-{[1-methyl-3-(trifluoromethyl)-1H-pyrazol-5-yl]oxy}-2-oxopyrrolidin-1-yl)bicyclo[1.1.1]pentan-1-yl]acetamide], the pEC50 is less than 5.70.

Turning to `O=C(COc1ccc(Cl)c(F)c1)NC12CC(N3CCN(c4ccc(Cl)cn4)C3=O)(C1)C2` [Compound 145, 2-(4-chloro-3-fluorophenoxy)-N-{3-[3-(5-chloropyridin-2-yl)-2-oxoimidazolidin-1-yl]bicyclo[1.1.1]pentan-1-yl}acetamide], the negative-log EC50 (pEC50) is greater than 7.30.

For the molecule `O=C(COc1ccc(Cl)c(F)c1)NC12CC(N3C(=O)c4ccc(Cl)cc4[C@H]3O)(C1)C2` (single isomer, unassigned) [Compound 149], the pEC50 is 6.00 to 6.60.

For the molecule `O=C(COc1ccc(F)c(Cl)c1)NC12CC(N3Cc4ccccc4C3=O)(C1)C2` [Compound 117, 2-(3-chloro-4-fluorophenoxy)-N-[3-(1-oxo-1,3-dihydro-2H-isoindol-2-yl)bicyclo[1.1.1]pentan-1-yl]acetamide], the negative logarithm of the EC50 (pEC50) was 6.60 to 7.30.

As for `O=C(COc1ccc(Cl)c(F)c1)NC12CCC(N3CC(c4ccc(Cl)cc4)OC3=O)(CC1)CC2O` (stereo not shown) [Compound 162, 2-(4-chloro-3-fluorophenoxy)-N-{4-[5-(4-chlorophenyl)-2-oxo-1,3-oxazolidin-3-yl]-2-hydroxybicyclo[2.2.2]octan-1-yl}acetamide], the pEC50 was 6.60 to 7.30.

For `O=C(COc1ccc(Cl)c(F)c1)NC12CC(n3ccn(-c4ccc(Cl)cc4)c3=O)(C1)C2` [Compound 160, 2-(4-chloro-3-fluorophenoxy)-N-{3-[3-(4-chlorophenyl)-2-oxo-2,3-dihydro-1H-imidazol-1-yl]bicyclo[1.1.1]pentan-1-yl}acetamide], the negative logarithm of the EC50 (pEC50) was greater than 7.30.

As to `CC1(c2ccc(Cl)cc2)CN=C(C23CC(NC(=O)COc4ccc(Cl)c(F)c4)(C2)C3)O1` (stereo not shown) [Compound 164, 2-(4-chloro-3-fluorophenoxy)-N-{3-[5-(4-chlorophenyl)-5-methyl-4,5-dihydro-1,3-oxazol-2-yl]bicyclo[1.1.1]pentan-1-yl}acetamide], the pEC50 was 6.00 to 6.60.

In the case of `O=C(COc1ccc(Cl)c(F)c1)NC12CC(N3C(=O)c4cc(Cl)ccc4[C@@H]3O)(C1)C2` (single isomer, unassigned) [Compound 148, 2-(4-chloro-3-fluorophenoxy)-N-{3-[(1)-5-chloro-1-hydroxy-3-oxo-1,3-dihydro-2H-isoindol-2-yl]bicyclo[1.1.1]pentan-1-yl}acetamide], the negative-log EC50 (pEC50) is less than 5.70.

As for `O=C(COc1ccc(Cl)c(F)c1)N[C@H]1CC[C@H](N2CCN(c3ccc(OC(F)(F)F)cn3)C2=O)CC1` [Compound 141, 2-(4-chloro-3-fluorophenoxy)-N-[(1r,4r)-4-{2-oxo-3-[5-(trifluoromethoxy)pyridin-2-yl]imidazolidin-1-yl}cyclohexyl]acetamide], the pEC50 was 6.60 to 7.30.

`O=C(COc1ccc(Cl)c(F)c1)NC12CC(N3CC(c4ccc(Cl)cc4)COC3=O)(C1)C2` (stereo not shown) [Compound 169, 2-(4-chloro-3-fluorophenoxy)-N-{3-[5-(4-chlorophenyl)-2-oxo-1,3-oxazinan-3-yl]bicyclo[1.1.1]pentan-1-yl}acetamide]: the pEC50 was 6.00 to 6.60.

As for `O=C(COc1ccc(Cl)c(F)c1)NC12CC(n3c(=O)[nH]c4cc(Cl)ccc4c3=O)(C1)C2` [Compound 140, N-[3-(7-chloro-2,4-dioxo-1,4-dihydroquinazolin-3(2H)-yl)bicyclo[1.1.1]pentan-1-yl]-2-(4-chloro-3-fluorophenoxy)acetamide], the negative-log EC50 (pEC50) is 6.00 to 6.60.

On to `Cc1nn(C)c(C)c1OC1CCN(C23CC(NC(=O)COc4ccc(Cl)c(F)c4)(C2)C3)C1=O` (stereo not shown) [Compound 104, 2-(4-chloro-3-fluorophenoxy)-N-(3-{2-oxo-3-[(1,3,5-trimethyl-1H-pyrazol-4-yl)oxy]pyrrolidin-1-yl}bicyclo[1.1.1]pentan-1-yl)acetamide], for which the negative-log EC50 (pEC50) is less than 5.70.

As for `O=C(COc1ccc(Cl)c(F)c1)N[C@H]1CC[C@H](N2CCN(c3ccc(C(F)(F)F)nc3)C2=O)CC1` [Compound 143, 2-(4-chloro-3-fluorophenoxy)-N-[(1r,4r)-4-{2-oxo-3-[6-(trifluoromethyl)pyridin-3-yl]imidazolidin-1-yl}cyclohexyl]acetamide], the pEC50 is greater than 7.30.

In the case of `O=C(COc1ccc(Cl)c(F)c1)NC12CC(C3=NC(c4ccc(Cl)cc4)CO3)(C1)C2` (stereo not shown) [Compound 113, 2-(4-chloro-3-fluorophenoxy)-N-{3-[4-(4-chlorophenyl)-4,5-dihydro-1,3-oxazol-2-yl]bicyclo[1.1.1]pentan-1-yl}acetamide], the negative logarithm of the EC50 (pEC50) was 6.00 to 6.60.

As to `O=C(COc1ccc(Cl)c(F)c1)NC12CC(N3C(=O)c4cc(Cl)ccc4[C@H]3O)(C1)C2` (single isomer, unassigned) [Compound 151], the pEC50 is less than 5.70.
